Tests used:
[1] = Effect on Ctsd gene expression in 5XFAD mouse cortex at 1200 ppm administered as rodent chow starting from 1.5 months and measured after 7 months by RNA-Seq analysis (reference value: 202.122 to 327.906 RPKM); format: functional; details: route po, time 5.5 months, 4015 h
[2] = biological target: Tyrosine-protein kinase Yes (Homo sapiens, UniProt P07947); test: Inhibition of YES1 (unknown origin)
[3] = Effect on Ctsz gene expression in 5XFAD mouse thalamus at 1200 ppm administered as rodent chow starting from 1.5 months and measured after 7 months by RNA-Seq analysis (reference value: 23.715 to 34.765 RPKM); format: functional; details: route po, time 5.5 months, 4015 h

Sequence of Tyrosine-protein kinase Yes (P07947 whole entry): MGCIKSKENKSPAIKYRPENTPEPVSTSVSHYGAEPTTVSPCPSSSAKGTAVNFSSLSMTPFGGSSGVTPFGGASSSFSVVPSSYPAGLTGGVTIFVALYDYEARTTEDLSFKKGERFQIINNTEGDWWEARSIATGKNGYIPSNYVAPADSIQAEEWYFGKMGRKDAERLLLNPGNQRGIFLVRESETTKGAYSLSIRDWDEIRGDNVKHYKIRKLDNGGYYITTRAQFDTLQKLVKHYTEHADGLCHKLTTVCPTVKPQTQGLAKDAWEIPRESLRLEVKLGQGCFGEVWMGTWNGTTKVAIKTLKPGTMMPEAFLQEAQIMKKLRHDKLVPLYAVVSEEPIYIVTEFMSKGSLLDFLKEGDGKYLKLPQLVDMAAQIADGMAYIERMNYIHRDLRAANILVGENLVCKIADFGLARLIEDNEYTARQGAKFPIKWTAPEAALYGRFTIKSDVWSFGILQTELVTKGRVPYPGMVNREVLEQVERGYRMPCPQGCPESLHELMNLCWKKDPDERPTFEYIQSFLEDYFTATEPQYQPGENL

## COc1ncc(F)cc1CNc1ccc(Cc2c[nH]c3ncc(C)cc23)c(F)n1 [PLX-5622]
[1]
  Activity: 106.638 RPKM
[2]
  IC50: > 1 µM
[3]
  Activity: 13.618 RPKM

— ChEMBL document CHEMBL5649170, “Sustained microglial depletion with CSF1R inhibitor impairs parenchymal plaque development in an Alzheimer's disease model” (Nat Commun, 2019)
